Experimental data taken from patent US20230024652A1, “PHARMACEUTICAL COMPOSITION COMPRISING SMALL OCTOPUS-DERIVED PEPTIDE FOR TREATMENT OF INFLAMMATORY DISEASE” (NATIONAL MARINE BIODIVERSITY INSTITUTE OF KOREA, priority 2020, published 2023).
Where a SMILES comes first, the peptide text is derived from it.

Tested on: RAW 264.7 macrophages
Experiment: MTT cell viability / cytotoxicity and cyto-protection
Assay type: cell-based
Settings: 62.5 to 500 μg/mL
Experimental: As macrophages, RAW 264.7 cells (American Type Culture Collection; ATCCUSA) were cultured in DMEM (Gibco/BRL, Canada) supplemented with 10% heat inactivated FBS and 1% antibiotics in 37° C. at 100% humidity under 5% CO2. […] After 24 hours, culture medium containing 3-(4,5-dimethylthiazol-2-yl)-2,5-diphenyltetrazolium bromide (MTT) (0.1 mg/mL) was added to each well. After 1 hour, culture medium was removed, and formazan crystals were dissolved in dimethyl sulfoxide (DMSO) and measured at 550 nm using a microplate reader. The concentration of NO in the culture medium was determined by Griess reagent (Abekura et al. Int Immunopharmacol 68:156, 2019). The cell viability of the control group untreated with Octominin was designated as 100%, which indicates no cytotoxicity

Question: For `CC[C@H](C)[C@H](NC(=O)[C@H](C)NC(=O)[C@H](CCCCN)NC(=O)CNC(=O)[C@H](C)NC(=O)[C@H](Cc1c[nH]cn1)NC(=O)[C@@H](NC(=O)[C@H](C)NC(=O)CNC(=O)[C@H](CCCNC(=N)N)NC(=O)[C@@H](NC(=O)[C@H](CC(C)C)NC(=O)[C@H](Cc1c[nH]c2ccccc12)NC(=O)CN)[C@@H](C)CC)[C@@H](C)CC)C(=O)N[C@@H](Cc1c[nH]cn1)C(=O)NCC(=O)N[C@@H](CC(C)C)C(=O)N[C@H](C(=O)N[C@@H](Cc1c[nH]cn1)C(=O)N[C@@H](CCCNC(=N)N)C(=O)N[C@@H](CCCNC(=N)N)C(=O)N[C@@H](CCCNC(=N)N)C(=O)N[C@@H](Cc1c[nH]cn1)C(=O)O)[C@@H](C)CC` [Octominin] (H-GWLIRGAIHAGKAIHGLIHRRRH-OH), which toxicity to macrophages is on record?
Answer: non-toxic

Question: And the “cell viability reduction (cytotoxicity, MTT)” value (RAW 264.7 macrophages without LPS, compared with control group)?
Answer: did not show any significant cell viability reduction
